target: IDO1 (Homo sapiens, UniProt P14902); assay: IDO1 Cellular Assay in HeLa Cells Stimulated with IFNγ; assay type: cell-based; conditions: read-out: HeLa Cell Potency, IC50
Sequence (P14902 whole entry): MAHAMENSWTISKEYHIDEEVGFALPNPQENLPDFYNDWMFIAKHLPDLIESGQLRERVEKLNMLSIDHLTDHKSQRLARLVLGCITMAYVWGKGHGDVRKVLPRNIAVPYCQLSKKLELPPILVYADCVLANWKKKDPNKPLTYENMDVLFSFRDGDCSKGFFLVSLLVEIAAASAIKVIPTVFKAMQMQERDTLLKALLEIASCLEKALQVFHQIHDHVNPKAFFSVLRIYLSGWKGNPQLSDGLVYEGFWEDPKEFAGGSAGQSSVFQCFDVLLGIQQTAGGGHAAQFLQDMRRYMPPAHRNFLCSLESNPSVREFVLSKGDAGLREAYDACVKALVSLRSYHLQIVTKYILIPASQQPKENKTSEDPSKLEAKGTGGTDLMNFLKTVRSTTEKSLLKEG

CC(=O)NC1CCN(C(=O)c2nn(CC(=O)N3CCN(c4cccc(Cl)c4C)CC3)c3c2CC(F)CC3)CC1 (centres unmarked) [Example 367, N-(1-(1-(2-(4-(3-chloro-2-methylphenyl)piperazin-1-yl)-2-oxoethyl)-5-fluoro-4,5,6,7-tetrahydro-1H-indazole-3-carbonyl)piperidin-4-yl)acetamide] and Cc1c(Cl)cccc1N1CCN(C(=O)Cn2nc(C(=O)N3CCC(O)CC3)c3c2CCC(F)C3)CC1 (centres unmarked) [Example 372, 1-(4-(3-chloro-2-methylphenyl)piperazin-1-yl)-2-(5-fluoro-3-(4-hydroxypiperidine-1-carbonyl)-4,5,6,7-tetrahydro-1H-indazol-1-yl)ethan-1-one] are within 1.5-fold of each other in IC50: 2.89 nM for the first, 2.32 nM for the second.

Cc1c(Cl)cccc1N1CCN(C(=O)Cn2nc(C(=O)N3CC[C@H](O)[C@H](F)C3)c3c2CCC(F)C3)CC1 (stereo partly drawn) [Example 369, 1-(4-(3-chloro-2-methylphenyl)piperazin-1-yl)-2-(5-fluoro-3-((3R,4S)-3-fluoro-4-hydroxypiperidine-1-carbonyl)-4,5,6,7-tetrahydro-1H-indazol-1-yl)ethan-1-one] and Cc1c(Cl)cccc1N1CCN(C(=O)Cn2nc(C(=O)N3CC[C@@H](O)[C@@H](F)C3)c3c2CCC(F)C3)CC1 (stereo partly drawn) [Example 370, 1-(4-(3-chloro-2-methylphenyl)piperazin-1-yl)-2-(5-fluoro-3-((3S,4R)-3-fluoro-4-hydroxypiperidine-1-carbonyl)-4,5,6,7-tetrahydro-1H-indazol-1-yl)ethan-1-one] are within 1.5-fold of each other in IC50: 6.62 nM for the first, 9.52 nM for the second.

First: Cc1c(Cl)cccc1N1CCN(C(=O)Cn2nc(C(=O)N3CCN(C(=O)CO)CC3)c3c2CCC(F)C3)CC1 (centres unmarked) [Example 371, 1-(4-(3-chloro-2-methylphenyl)piperazin-1-yl)-2-(5-fluoro-3-(4-(2-hydroxyacetyl)piperazine-1-carbonyl)-4,5,6,7-tetrahydro-1H-indazol-1-yl)ethan-1-one]
Second: CC(=O)NC1CCN(C(=O)c2nn(CC(=O)N3CCN(c4cccc(Cl)c4C)CC3)c3c2CC(F)CC3)CC1 (centres unmarked) [Example 377, N-(1-(1-(2-(4-(3-chloro-2-methylphenyl)piperazin-1-yl)-2-oxoethyl)-5-fluoro-4,5,6,7-tetrahydro-1H-indazol-3-carbonyl)piperidin-4-yl)acetamide]
The IC50 of the first is 5-fold higher: 15.7 nM for the first, 3.15 nM for the second. The second is the more potent here.

Going from Cc1c(Cl)cccc1N1CCN(C(=O)Cn2nc(C(=O)N3CC[C@H](O)[C@H](F)C3)c3c2CCC(F)C3)CC1 (stereo partly drawn) [Example 374, 1-(4-(3-chloro-2-methylphenyl)piperazin-1-yl)-2-(5-fluoro-3-((3R,4S)-3-fluoro-4-hydroxypiperidine-1-carbonyl)-4,5,6,7-tetrahydro-1H-indazol-1-yl)ethan-1-one] to Cc1c(Cl)cccc1N1CCN(C(=O)Cn2nc(C(=O)N3CC[C@@H](O)[C@@H](F)C3)c3c2CCC(F)C3)CC1 (stereo partly drawn) [Example 375, 1-(4-(3-chloro-2-methylphenyl)piperazin-1-yl)-2-(5-fluoro-3-((3S,4R)-3-fluoro-4-hydroxypiperidine-1-carbonyl)-4,5,6,7-tetrahydro-1H-indazol-1-yl)ethan-1-one], the IC50 rises from 5.17 nM to 9.03 nM (1.7-fold).

Compared with Cc1c(Cl)cccc1N1CCN(C(=O)Cn2nc(C(=O)N3CCN(C(=O)CO)CC3)c3c2CCC(F)C3)CC1 (centres unmarked) [Example 376, 1-(4-(3-chloro-2-methylphenyl)piperazin-1-yl)-2-(5-fluoro-3-(4-(2-hydroxyacetyl)piperazine-1-carbonyl)-4,5,6,7-tetrahydro-1H-indazol-1-yl)ethan-1-one], Cc1cccc(N2CCN(C(=O)Cn3nc(C(=O)N4CCN(C(=O)CN)CC4)c4c3CCC4)CC2)c1C [Example 398, 2-amino-1-(4-(1-(2-(4-(2,3-dimethylphenyl)piperazin-1-yl)-2-oxoethyl)-1,4,5,6-tetrahydrocyclopenta[c]pyrazole-3-carbonyl)piperazin-1-yl)ethanone] is 18-fold higher in IC50: 14 nM for the first, 258 nM for the second. The first is the more potent here.

Compared with Cc1c(Cl)cccc1N1CCN(C(=O)Cn2nc(C(=O)N3CC[C@@H](O)[C@@H](F)C3)c3c2CCC(F)(F)C3)CC1 [Example 378, 1-(4-(3-chloro-2-methylphenyl)piperazin-1-yl)-2-(5,5-difluoro-3-((3 S,4R)-3-fluoro-4-hydroxypiperidine-1-carbonyl)-4,5,6,7-tetrahydro-1H-indazol-1-yl)ethan-1-one], Cc1c(Cl)cccc1N1CCN(C(=O)Cn2nc(C(=O)N3CC[C@H](O)[C@@H](F)C3)c3c2CCCC3)CC1 [Example 404, 1-(4-(3-chloro-2-methylphenyl)piperazin-1-yl)-2-(3-((3S,4S)-3-fluoro-4-hydroxypiperidine-1-carbonyl)-4,5,6,7-tetrahydro-1H-indazol-1-yl)ethanone] is 8.7-fold lower in IC50: 9.25 nM for the first, 1.06 nM for the second. The second is the more potent here.

Going from Cc1c(Cl)cccc1N1CCN(C(=O)Cn2nc(C(=O)N3CCN(C)C(C)C3)c3c2CCC(F)(F)C3)CC1 (centres unmarked) [Example 382] to Cc1c(Cl)cccc1N1CCN(C(=O)Cn2nc(C(=O)N3CCC(O)(CF)CC3)c3c2CCC(F)(F)C3)CC1 [Example 383, 1-(4-(3-chloro-2-methylphenyl)piperazin-1-yl)-2-(5,5-difluoro-3-(4-(fluoromethyl)-4-hydroxypiperidine-1-carbonyl)-4,5,6,7-tetrahydro-1H-indazol-1-yl)ethan-1-one], the IC50 falls from 11.6 nM to 4.49 nM (2.6-fold).

First: Cc1cccc(N2CCN(C(=O)Cn3nc(C(=O)N4CCC(O)CC4)c4c3C[C@H]3C[C@@H]43)C(C(F)F)C2)c1C (stereo partly drawn) [Example 385, 1-(2-(difluoromethyl)-4-(2,3-dimethylphenyl)piperazin-1-yl)-2-((3bR,4aR)-3-(4-hydroxypiperidine-1-carbonyl)-3b,4,4a,5-tetrahydro-1H-cyclopropa[3,4]cyclopenta[1,2-c]pyrazol-1-yl)ethanone]
Second: Cc1cccc(N2CCN(C(=O)Cn3nc(C(=O)N4CCN(C(=O)CO)CC4)c4c3C[C@H]3C[C@@H]43)C(C(F)F)C2)c1C (some centres unmarked) [Example 388]
The IC50 of the first is 2.7-fold lower: 34.9 nM for the first, 92.6 nM for the second.

Compared with Cc1cccc(N2CCN(C(=O)Cn3nc(C(=O)N4CCN(C(=O)CO)CC4)c4c3C[C@H]3C[C@@H]43)C(C(F)F)C2)c1C (some centres unmarked) [Example 389], Cc1cccc(N2CCN(C(=O)Cn3nc(C(=O)N4CCN(C(=O)CO)[C@H](C)C4)c4c3CCC4)CC2)c1C [Example 400, (R)-1-(4-(2,3-dimethylphenyl)piperazin-1-yl)-2-(3-(4-(2-hydroxyacetyl)-3-methylpiperazine-1-carbonyl)-5,6-dihydrocyclopenta[c]pyrazol-1(4H)-yl)ethanone] is 1.9-fold lower in IC50: 47.6 nM for the first, 25.6 nM for the second.

Going from Cc1cccc(N2CCN(C(=O)Cn3nc(C(=O)N4CCN(C(=O)CO)CC4)c4c3C[C@H]3C[C@@H]43)C(C(F)F)C2)c1C (some centres unmarked) [Example 390] to Cc1cccc(N2CCN(C(=O)Cn3nc(C(=O)N4CCN(C(=O)CO)C[C@@H]4C)c4c3CCC4)CC2)c1C [Example 401, (S)-1-(4-(2,3-dimethylphenyl)piperazin-1-yl)-2-(3-(4-(2-hydroxyacetyl)-2-methylpiperazine-1-carbonyl)-5,6-dihydrocyclopenta[c]pyrazol-1(4H)-yl)ethanone], the IC50 falls from 226 nM to 12.9 nM (18-fold). The second is the more potent here.

Cc1cccc(N2CCN(C(=O)Cn3nc(C(=O)N4CCN(C(=O)[C@H](C)O)CC4)c4c3CCC4)CC2)c1C [Example 397, (S)-1-(4-(1-(2-(4-(2,3-dimethylphenyl)piperazin-1-yl)-2-oxoethyl)-1,4,5,6-tetrahydrocyclopenta[c]pyrazole-3-carbonyl)piperazin-1-yl)-2-hydroxypropan-1-one] and Cc1cccc(N2CCN(C(=O)Cn3nc(C(=O)N4CCN(C(=O)[C@@H](C)O)CC4)c4c3CCC4)CC2)c1C [Example 403, (R)-1-(4-(1-(2-(4-(2,3-dimethylphenyl)piperazin-1-yl)-2-oxoethyl)-1,4,5,6-tetrahydrocyclopenta[c]pyrazole-3-carbonyl)piperazin-1-yl)-2-hydroxypropan-1-one] are within 1.5-fold of each other in IC50: 22.4 nM for the first, 18.3 nM for the second.

Compared with COCC(=O)N1CCN(C(=O)c2nn(CC(=O)N3CCN(c4cccc(C)c4C)CC3)c3c2CCC3)CC1 [Example 399, 1-(4-(2,3-dimethylphenyl)piperazin-1-yl)-2-(3-(4-(2-methoxyacetyl)piperazine-1-carbonyl)-5,6-dihydrocyclopenta[c]pyrazol-1(4H)-yl)ethanone], Cc1cccc(N2CCN(C(=O)Cn3nc(C(=O)N4CCN(C(=O)CO)C[C@H]4C)c4c3CCC4)CC2)c1C [Example 402, (R)-1-(4-(2,3-dimethylphenyl)piperazin-1-yl)-2-(3-(4-(2-hydroxyacetyl)-2-methylpiperazine-1-carbonyl)-5,6-dihydrocyclopenta[c]pyrazol-1(4H)-yl)ethanone] is 6.3-fold lower in IC50: 22.4 nM for the first, 3.58 nM for the second. The second is the more potent here.

Going from Cc1c(Cl)cccc1N1CCN(C(=O)Cn2nc(C(=O)N3CCC(O)(CF)CC3)c3c2CCCC3)CC1 [Example 407, 1-(4-(3-chloro-2-methylphenyl)piperazin-1-yl)-2-(3-(4-(fluoromethyl)-4-hydroxypiperidine-1-carbonyl)-4,5,6,7-tetrahydro-1H-indazol-1-yl)ethanone] to Cc1cccc(N2CCN(C(=O)Cn3nc(C(=O)N4CCC(O)CC4)c4c3CCCCC4)CC2)c1C [Example 409, 1-(4-(2,3-dimethylphenyl)piperazin-1-yl)-2-(3-(4-hydroxypiperidine-1-carbonyl)-5,6,7,8-tetrahydrocyclohepta[c]pyrazol-1(4H)-yl)ethan-1-one], the IC50 rises from 1.09 nM to 2.63 nM (2.4-fold).

First: Cc1c(Cl)ccnc1N1CCN(C(=O)Cn2nc(C(=O)N3CCC(O)CC3)c3c2CCCC3)C2(CC2)C1 [Example 408, 1-(7-(4-chloro-3-methylpyridin-2-yl)-4,7-diazaspiro[2.5]octan-4-yl)-2-(3-(4-hydroxypiperidine-1-carbonyl)-4,5,6,7-tetrahydro-1H-indazol-1-yl)ethanone]
Second: Cc1cccc(N2CCN(C(=O)Cn3nc(C(=O)N4CCC(O)C(F)C4)c4c3CCCCC4)CC2)c1C (centres unmarked) [Example 411, 1-(4-(2,3-dimethylphenyl)piperazin-1-yl)-2-(3-(3-fluoro-4-hydroxypiperidine-1-carbonyl)-5,6,7,8-tetrahydrocyclohepta[c]pyrazol-1(4H)-yl)ethanone]
The IC50 of the first is 1.8-fold lower: 4.93 nM for the first, 8.74 nM for the second. The first is the more potent here.

Cc1cccc(N2CCN(C(=O)Cn3nc(C(=O)N4C[C@@H](C)O[C@@H](C)C4)c4c3CCCCC4)CC2)c1C [Example 410, 2-(3-((2R,6S)-2,6-dimethylmorpholine-4-carbonyl)-5,6,7,8-tetrahydrocyclohepta[c]pyrazol-1(4H)-yl)-1-(4-(2,3-dimethylphenyl)piperazin-1-yl)ethanone] was tested, and the IC50 was 4.97 nM.
